Measurements published in ChEMBL document CHEMBL1148776, “Structure-based optimization of protein tyrosine phosphatase 1B inhibitors: from the active site to the second phosphotyrosine binding site” (J Med Chem, 2007).

Columns and labels:
[1] = Cmax in C57/B6 mouse plasma at 10 mg/kg, ip after 1 hr; type: ADME, organism-based; design: dose 10 mg/kg, route intraperitoneal
[2] = target: T1, Receptor-type tyrosine-protein phosphatase C (Homo sapiens, UniProt P08575); experiment: Inhibition of human recombinant CD45
T1 sequence (P08575 whole entry): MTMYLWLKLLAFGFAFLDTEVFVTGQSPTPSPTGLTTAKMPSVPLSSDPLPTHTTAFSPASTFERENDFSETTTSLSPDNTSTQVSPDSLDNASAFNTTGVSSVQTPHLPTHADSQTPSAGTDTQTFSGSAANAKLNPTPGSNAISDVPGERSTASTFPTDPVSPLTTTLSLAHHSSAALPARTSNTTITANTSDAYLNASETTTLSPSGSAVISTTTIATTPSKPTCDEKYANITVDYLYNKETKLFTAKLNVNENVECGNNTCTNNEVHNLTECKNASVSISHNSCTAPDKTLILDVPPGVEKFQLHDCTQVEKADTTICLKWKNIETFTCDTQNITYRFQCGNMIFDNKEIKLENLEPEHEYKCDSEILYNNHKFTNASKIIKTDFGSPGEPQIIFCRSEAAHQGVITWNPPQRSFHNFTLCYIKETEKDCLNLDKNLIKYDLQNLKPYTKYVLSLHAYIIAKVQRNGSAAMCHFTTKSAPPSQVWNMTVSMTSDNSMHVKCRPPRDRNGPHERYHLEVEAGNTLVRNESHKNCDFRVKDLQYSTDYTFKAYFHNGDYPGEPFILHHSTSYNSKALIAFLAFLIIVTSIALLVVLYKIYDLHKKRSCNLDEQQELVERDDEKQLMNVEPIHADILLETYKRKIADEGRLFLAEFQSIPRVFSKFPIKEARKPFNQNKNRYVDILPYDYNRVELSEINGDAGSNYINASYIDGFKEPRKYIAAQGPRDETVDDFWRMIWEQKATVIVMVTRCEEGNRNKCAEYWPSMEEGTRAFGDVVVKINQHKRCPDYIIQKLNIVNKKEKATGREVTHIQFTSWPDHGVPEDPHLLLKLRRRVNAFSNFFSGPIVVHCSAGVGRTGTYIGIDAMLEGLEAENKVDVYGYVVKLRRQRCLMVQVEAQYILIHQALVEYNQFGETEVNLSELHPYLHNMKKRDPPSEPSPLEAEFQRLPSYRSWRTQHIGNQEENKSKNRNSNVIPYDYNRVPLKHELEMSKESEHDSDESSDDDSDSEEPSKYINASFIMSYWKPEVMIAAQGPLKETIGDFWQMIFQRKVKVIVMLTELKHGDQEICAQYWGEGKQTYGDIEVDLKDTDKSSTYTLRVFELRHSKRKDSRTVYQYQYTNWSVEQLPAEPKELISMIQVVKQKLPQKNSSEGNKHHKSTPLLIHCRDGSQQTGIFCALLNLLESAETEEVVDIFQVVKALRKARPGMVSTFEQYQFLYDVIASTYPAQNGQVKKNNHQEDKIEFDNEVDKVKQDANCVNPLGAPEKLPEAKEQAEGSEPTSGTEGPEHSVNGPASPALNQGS

[3] = Stability in rat liver microsomes; type: ADME, Microsome
[4] = Plasma clearance in Sprague-Dawley rat at 2 mg/kg, iv; type: ADME, organism-based; design: dose 2 mg/kg, route intravenous
[5] = Drug level in C57/B6 mouse muscle at 10 mg/kg, ip after 7 hrs; type: ADME, organism-based, Muscle tissue; design: dose 10 mg/kg, route intraperitoneal; conditions: read-out: Drug uptake
Cytochrome P450 1A2 = target: T2, Cytochrome P450 1A2 (Homo sapiens, UniProt P05177); experiment: Inhibition of CYP1A2; type: ADME
T2 sequence (P05177 whole entry): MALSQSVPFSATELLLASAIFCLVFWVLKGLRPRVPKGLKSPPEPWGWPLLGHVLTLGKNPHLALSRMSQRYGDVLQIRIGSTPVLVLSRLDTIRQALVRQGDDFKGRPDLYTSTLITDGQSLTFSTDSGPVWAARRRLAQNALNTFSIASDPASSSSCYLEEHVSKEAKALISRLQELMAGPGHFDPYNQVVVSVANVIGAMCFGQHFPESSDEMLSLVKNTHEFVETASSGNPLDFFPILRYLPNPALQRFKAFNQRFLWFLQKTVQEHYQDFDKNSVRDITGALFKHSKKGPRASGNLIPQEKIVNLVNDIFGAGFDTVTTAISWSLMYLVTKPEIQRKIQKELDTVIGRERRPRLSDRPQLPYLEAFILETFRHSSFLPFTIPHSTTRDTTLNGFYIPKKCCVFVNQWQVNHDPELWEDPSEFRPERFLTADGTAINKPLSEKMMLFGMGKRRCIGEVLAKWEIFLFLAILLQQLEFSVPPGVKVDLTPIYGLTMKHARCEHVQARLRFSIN

[6] = Drug level in C57/B6 mouse liver at 10 mg/kg, ip after 1 hr; type: ADME, organism-based; design: dose 10 mg/kg, route intraperitoneal; conditions: read-out: Drug uptake
[7] = Aqueous solubility at pH 7.4; type: physicochemical
[8] = Permeability coefficient across human Caco-2 cells; type: ADME, cell-based; conditions: read-out: permeability
Cytochrome P450 2C9 = Cytochrome P450 2C9 (Homo sapiens, UniProt P11712); experiment: Inhibition of CYP2C9; type: ADME
[9] = Drug level in C57/B6 mouse plasma at 10 mg/kg, ip after 7 hrs; type: ADME, organism-based; design: dose 10 mg/kg, route intraperitoneal; conditions: read-out: Drug uptake
Cytochrome P450 2A6 = target: T3, Cytochrome P450 2A6 (Homo sapiens, UniProt P11509); experiment: Inhibition of CYP2A6; type: ADME
T3 sequence (P11509 whole entry): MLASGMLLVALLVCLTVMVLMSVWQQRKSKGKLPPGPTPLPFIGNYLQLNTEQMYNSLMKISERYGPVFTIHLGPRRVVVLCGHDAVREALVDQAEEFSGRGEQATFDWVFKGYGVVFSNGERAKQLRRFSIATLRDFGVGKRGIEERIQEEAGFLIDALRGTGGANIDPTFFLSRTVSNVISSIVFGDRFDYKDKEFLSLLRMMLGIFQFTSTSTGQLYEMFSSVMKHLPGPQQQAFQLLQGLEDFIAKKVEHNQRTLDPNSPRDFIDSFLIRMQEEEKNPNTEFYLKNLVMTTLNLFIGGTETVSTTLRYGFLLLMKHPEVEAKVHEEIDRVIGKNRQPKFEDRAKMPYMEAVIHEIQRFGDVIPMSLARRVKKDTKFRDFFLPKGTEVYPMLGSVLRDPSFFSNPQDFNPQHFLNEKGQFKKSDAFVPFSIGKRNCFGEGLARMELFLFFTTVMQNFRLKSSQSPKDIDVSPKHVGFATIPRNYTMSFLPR

[10] = Drug level in C57/B6 mouse liver at 10 mg/kg, ip after 7 hrs; type: ADME, organism-based; design: dose 10 mg/kg, route intraperitoneal; conditions: read-out: Drug uptake
[11] = target: Receptor-type tyrosine-protein phosphatase F (Homo sapiens, UniProt P10586); experiment: Inhibition of human recombinant LAR
Hepatocyte = experiment: Decrease in drug uptake in rat hepatocytes in presence of verapamil; type: ADME, cell-based; design: scale not given: the % may be the effect or the level left
[12] = Stability in mouse liver microsomes; type: ADME, Microsome
[13] = Half life in Sprague-Dawley rat at 2 mg/kg, iv; type: ADME, organism-based; design: dose 2 mg/kg, route intravenous; conditions: in vivo
Cytochrome P450 3A4 = Cytochrome P450 3A4 (Homo sapiens, UniProt P08684); experiment: Inhibition of CYP3A4; type: ADME
Cytochrome P450 2C8 = target: T4, Cytochrome P450 2C8 (Homo sapiens, UniProt P10632); experiment: Inhibition of CYP2C8; type: ADME
T4 sequence (P10632 whole entry): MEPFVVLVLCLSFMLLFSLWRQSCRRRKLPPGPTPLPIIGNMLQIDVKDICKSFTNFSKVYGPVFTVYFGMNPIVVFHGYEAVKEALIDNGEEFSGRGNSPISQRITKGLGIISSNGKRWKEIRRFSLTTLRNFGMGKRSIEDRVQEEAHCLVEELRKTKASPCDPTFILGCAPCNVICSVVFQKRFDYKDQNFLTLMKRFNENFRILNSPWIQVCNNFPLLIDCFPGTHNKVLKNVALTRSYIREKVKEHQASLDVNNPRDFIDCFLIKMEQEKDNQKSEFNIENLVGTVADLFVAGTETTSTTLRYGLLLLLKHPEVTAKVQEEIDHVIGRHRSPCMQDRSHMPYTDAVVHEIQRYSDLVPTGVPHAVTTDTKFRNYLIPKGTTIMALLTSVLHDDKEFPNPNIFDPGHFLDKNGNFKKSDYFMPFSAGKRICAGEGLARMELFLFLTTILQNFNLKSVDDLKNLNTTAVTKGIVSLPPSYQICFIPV

Cytochrome P450 2D6 = Cytochrome P450 2D6 (Homo sapiens, UniProt P10635); experiment: Inhibition of CYP2D6; type: ADME
[14] = Drug level in C57/B6 mouse muscle at 10 mg/kg, ip after 1 hr; type: ADME, organism-based, Muscle tissue; design: dose 10 mg/kg, route intraperitoneal; conditions: read-out: Drug uptake
[15] = Stability in human liver microsomes; type: ADME, Microsome
Cytochrome P450 2C19 = Cytochrome P450 2C19 (Homo sapiens, UniProt P33261); experiment: Inhibition of CYP2C19; type: ADME
Cytochrome P450 2C19, sequence (P33261 whole entry): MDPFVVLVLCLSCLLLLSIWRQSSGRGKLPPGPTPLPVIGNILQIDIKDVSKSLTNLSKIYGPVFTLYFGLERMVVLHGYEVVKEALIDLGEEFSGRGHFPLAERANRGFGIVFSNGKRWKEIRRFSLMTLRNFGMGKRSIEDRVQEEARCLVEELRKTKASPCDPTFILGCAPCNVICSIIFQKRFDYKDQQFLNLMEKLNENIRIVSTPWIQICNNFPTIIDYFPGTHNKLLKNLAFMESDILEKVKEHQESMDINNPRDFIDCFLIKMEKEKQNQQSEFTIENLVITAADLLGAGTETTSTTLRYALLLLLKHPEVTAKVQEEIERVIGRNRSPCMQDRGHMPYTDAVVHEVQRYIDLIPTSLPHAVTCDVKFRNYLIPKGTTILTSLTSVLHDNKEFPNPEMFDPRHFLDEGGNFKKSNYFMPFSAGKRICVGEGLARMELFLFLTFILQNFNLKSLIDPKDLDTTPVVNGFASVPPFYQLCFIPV

Cytochrome P450 2C9, sequence (P11712 whole entry): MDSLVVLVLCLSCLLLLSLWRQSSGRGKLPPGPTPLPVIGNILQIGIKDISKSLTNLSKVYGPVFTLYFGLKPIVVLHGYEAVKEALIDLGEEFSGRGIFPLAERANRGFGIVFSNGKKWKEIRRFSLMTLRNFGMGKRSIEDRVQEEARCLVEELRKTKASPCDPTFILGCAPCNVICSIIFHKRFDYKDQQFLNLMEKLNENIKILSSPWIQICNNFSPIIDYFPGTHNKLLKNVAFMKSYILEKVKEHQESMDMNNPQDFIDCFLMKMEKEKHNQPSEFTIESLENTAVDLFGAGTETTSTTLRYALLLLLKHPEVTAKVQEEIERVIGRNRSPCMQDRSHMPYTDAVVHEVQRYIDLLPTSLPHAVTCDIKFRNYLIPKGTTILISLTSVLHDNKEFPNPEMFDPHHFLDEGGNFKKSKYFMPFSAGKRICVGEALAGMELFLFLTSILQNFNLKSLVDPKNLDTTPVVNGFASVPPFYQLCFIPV
Cytochrome P450 2D6, sequence (P10635 whole entry): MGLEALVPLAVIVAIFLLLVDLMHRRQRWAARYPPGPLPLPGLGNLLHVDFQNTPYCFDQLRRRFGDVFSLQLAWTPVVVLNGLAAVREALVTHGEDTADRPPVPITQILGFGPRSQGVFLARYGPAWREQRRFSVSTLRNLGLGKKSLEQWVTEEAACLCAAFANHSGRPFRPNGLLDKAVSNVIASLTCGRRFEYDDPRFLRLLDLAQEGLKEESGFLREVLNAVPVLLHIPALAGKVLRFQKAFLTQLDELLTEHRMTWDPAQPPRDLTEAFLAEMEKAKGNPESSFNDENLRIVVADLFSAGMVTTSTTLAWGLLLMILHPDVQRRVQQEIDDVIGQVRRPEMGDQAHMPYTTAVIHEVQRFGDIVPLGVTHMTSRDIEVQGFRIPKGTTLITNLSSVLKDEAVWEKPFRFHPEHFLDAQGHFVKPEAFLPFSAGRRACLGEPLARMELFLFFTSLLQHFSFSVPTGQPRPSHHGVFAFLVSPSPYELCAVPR
Receptor-type tyrosine-protein phosphatase F, sequence (P10586 whole entry): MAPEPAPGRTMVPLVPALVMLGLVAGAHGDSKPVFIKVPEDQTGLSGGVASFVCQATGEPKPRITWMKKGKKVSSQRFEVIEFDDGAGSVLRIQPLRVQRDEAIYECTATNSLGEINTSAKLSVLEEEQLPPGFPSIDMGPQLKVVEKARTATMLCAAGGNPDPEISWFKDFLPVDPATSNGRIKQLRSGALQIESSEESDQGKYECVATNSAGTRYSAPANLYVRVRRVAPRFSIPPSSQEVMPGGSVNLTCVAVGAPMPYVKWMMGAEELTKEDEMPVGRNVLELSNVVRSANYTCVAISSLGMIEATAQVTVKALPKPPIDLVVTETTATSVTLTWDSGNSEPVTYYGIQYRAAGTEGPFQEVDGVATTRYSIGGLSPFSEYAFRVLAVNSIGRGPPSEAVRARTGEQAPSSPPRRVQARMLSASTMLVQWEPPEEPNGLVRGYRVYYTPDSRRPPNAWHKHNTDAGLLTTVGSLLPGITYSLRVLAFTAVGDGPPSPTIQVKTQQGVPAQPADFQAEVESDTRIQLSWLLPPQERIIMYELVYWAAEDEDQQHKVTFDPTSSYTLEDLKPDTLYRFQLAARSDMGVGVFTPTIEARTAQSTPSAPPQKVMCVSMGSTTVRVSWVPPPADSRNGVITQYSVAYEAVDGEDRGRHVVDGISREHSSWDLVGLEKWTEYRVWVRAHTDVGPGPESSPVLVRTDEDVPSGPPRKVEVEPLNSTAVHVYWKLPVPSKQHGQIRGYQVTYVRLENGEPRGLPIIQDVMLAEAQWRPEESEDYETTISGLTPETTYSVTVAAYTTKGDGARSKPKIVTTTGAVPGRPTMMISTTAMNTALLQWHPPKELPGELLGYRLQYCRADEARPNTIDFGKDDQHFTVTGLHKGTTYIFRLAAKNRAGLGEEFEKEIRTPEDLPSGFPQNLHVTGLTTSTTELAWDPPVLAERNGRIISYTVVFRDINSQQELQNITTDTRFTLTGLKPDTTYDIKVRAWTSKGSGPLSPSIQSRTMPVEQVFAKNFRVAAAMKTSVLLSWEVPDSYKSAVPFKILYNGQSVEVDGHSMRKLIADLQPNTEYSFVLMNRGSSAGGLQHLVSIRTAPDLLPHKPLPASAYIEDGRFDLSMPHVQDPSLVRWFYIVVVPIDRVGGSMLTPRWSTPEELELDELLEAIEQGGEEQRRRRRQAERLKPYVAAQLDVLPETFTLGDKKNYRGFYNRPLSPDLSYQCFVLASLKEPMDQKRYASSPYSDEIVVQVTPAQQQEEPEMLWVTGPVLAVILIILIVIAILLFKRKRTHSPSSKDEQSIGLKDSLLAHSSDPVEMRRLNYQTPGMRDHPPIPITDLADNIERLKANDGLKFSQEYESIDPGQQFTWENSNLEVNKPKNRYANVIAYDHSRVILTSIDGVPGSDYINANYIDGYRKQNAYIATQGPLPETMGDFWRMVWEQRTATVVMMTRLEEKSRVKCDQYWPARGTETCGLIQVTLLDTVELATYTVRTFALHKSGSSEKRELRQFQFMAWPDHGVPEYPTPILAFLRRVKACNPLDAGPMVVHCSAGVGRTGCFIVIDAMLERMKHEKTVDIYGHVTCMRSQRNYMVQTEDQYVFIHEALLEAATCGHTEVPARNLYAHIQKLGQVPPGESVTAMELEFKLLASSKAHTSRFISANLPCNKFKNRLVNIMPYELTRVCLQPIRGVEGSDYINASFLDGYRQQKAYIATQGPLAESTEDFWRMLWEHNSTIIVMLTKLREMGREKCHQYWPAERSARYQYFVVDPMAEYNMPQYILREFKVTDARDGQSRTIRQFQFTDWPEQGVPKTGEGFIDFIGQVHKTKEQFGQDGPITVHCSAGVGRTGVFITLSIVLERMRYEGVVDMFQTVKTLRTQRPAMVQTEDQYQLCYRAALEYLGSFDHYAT
Cytochrome P450 3A4, sequence (P08684 whole entry): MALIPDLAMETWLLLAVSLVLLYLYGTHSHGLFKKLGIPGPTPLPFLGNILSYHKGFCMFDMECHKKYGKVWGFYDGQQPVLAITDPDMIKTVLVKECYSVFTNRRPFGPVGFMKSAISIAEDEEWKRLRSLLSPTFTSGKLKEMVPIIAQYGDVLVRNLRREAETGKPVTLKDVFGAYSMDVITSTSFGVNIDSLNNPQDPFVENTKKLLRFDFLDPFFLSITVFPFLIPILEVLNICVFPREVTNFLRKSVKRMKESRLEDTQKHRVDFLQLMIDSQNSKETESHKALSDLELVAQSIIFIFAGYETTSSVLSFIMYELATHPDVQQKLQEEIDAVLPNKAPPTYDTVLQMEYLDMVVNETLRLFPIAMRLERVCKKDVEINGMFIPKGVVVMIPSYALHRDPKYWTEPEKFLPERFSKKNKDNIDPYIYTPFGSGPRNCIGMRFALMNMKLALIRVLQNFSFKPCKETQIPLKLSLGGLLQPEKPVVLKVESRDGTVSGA

O=C(O)COc1c(C(=O)O)sc(-c2cccc(NC3CCN(S(=O)(=O)Cc4ccccc4)CC3)c2)c1Br
Cmax [1]: 15200 nM | Ki [2]: 77 µM | half-life [3]: 0.767 h | clearance [4]: 7 mL/min/kg | concentration at 7 h [5]: 260 nM | IC50 (Cytochrome P450 1A2): > 500 µM | concentration at 1 h [6]: 6900 nM | solubility [7]: > 100 µg/mL | Papp [8]: < 1 ×10⁻⁶ cm/s | IC50 (Cytochrome P450 2C9): 40 µM | concentration at 7 h [9]: 370 nM | IC50 (Cytochrome P450 2A6): > 500 µM | concentration at 7 h [10]: 170 nM | Ki [11]: > 500 µM | Activity (Hepatocyte): 70% | half-life [12]: > 1 h | half-life [13]: 10 h | IC50 (Cytochrome P450 3A4): > 500 µM | IC50 (Cytochrome P450 2C8): > 500 µM | IC50 (Cytochrome P450 2D6): > 500 µM | concentration at 1 h [14]: 3500 nM | half-life [15]: > 1 h | IC50 (Cytochrome P450 2C19): > 500 µM
